Common to all, as to type: cell-based
What all share (conditions): CreLuc reporter gene assay
Background: A reporter such as luciferase makes a cellular process visible.

Assay [1] concerns the target T1, hNPY2R (Homo sapiens, UniProt P49146).
T1 construct: expressed in transfected cells; host or cells: HEK-293 cells carrying a CRE-luciferase reporter gene
T1 sequence (P49146 1-381): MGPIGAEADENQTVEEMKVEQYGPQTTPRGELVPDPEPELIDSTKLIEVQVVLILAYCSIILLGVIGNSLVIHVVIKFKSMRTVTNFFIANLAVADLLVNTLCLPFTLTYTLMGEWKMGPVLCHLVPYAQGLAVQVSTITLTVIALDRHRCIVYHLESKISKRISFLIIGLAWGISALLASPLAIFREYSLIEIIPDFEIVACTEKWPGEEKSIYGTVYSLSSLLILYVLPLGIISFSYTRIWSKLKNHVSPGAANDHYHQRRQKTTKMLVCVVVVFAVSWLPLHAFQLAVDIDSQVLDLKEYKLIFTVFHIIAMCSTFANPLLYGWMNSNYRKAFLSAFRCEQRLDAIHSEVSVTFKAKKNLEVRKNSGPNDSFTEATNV
The assay can be described thus: hNPY2R CreLuc reporter gene assay in 0.5% and 100% plasma. From the text:
Example 1: hGLPR/hGIPR/hNPY2R CreLuc Assay in 0.5% and 100% Plasma
CHO and HEK-293 recombinant cell lines express a luciferase reporter gene under control of the cAMP responsive element (CRE). As a second recombinant protein the GLP-1 and NPY2 receptors were expressed in the reporter gene HEK cells, and the GIP receptor was expressed in the reporter gene CHO cells, respectively. Stimulation of these recombinant cells with an agonist leads to an increase of intracellular cAMP levels. In the presence of cAMP, the transcription factor CRE binding protein (CREB) binds to the CRE and to the CREB binding protein (CBP), which leads to transcription of the luciferase reporter gene. Peptides upon serial-dilution in 100% DMSO were transferred into 384-well assay plates with 5 μl pre-dispensed assay buffer (1×HBSS, 20 mM HEPES, pH7.4 supplemented with 0.5% human plasma) using acoustic dispensing on a Labcyte ECHO. Cryo-preserved transgenic reporter gene cells were thawed in assay buffer. 20 μl (10.000 cells/well) were added to the plate with the peptides and incubated for 4 hours at 37° C. in a humidified incubator. Following incubation, assay plates are equilibrated to room temperature, followed by addition of 25 μl of Bright-GIo™ Luciferase reagent, incubation at room temperature for 10 minutes and analysis of luminescence (Envision Reader). Concentration response evaluation of compounds was performed with 8 concentrations of peptides (covering four decades). EC50 values were calculated by non-linear regression using sigmoid concentration-response with variable slope. The same assays were run in the presence of 100% plasma with no additional buffer constituents.

In assay [2] the target is T2, hGIPR (Homo sapiens, UniProt P48546).
T2 construct: expressed in transfected cells; host or cells: CHO cells carrying a CRE-luciferase reporter gene
T2 sequence (P48546 22-466): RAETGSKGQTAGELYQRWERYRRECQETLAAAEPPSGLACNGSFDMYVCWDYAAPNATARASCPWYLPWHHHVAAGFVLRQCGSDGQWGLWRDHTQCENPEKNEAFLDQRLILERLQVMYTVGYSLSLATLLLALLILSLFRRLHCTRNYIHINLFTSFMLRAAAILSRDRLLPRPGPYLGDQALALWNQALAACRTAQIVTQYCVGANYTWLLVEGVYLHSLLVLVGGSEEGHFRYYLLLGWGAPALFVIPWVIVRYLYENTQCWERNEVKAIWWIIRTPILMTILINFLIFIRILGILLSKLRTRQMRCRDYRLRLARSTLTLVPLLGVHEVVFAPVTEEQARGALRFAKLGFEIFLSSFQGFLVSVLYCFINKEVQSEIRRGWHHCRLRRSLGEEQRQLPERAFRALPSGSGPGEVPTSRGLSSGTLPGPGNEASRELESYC
As to the kind of experiment: hGIPR CreLuc reporter gene assay in 0.5% and 100% plasma. An outline of the steps: (§1)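 HEK-293 cells co-expressing GLP-1 or NPY2 receptor and CHO cells expressing GIP receptor, each carrying a CRE-driven luciferase reporter, were stimulated with peptides for 4 hours at 37 °C. Luminescence was read after Bright-Glo addition. EC50 came from 8-point, four-decade curves fitted by variable-slope non-linear regression.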

For assay [3], the target named is T3, hGLP1R (Homo sapiens, UniProt P43220).
T3 construct: expressed in transfected cells; host or cells: HEK-293 cells carrying a CRE-luciferase reporter gene
The assay can be described thus: hGLP1R CreLuc reporter gene assay in 0.5% and 100% plasma. An outline of the steps: as §1

[4] abbreviates: 0.5% human plasma, read-out: hNPY2R 0.5% hP.
Setting [5] is: 100% human plasma, read-out: hNPY2R 100% hP.
The mark [6] stands for this setting: 0.5% human plasma, read-out: hGIPR 0.5% hP.
Where [7] appears, read: 100% human plasma, read-out: hGIPR 100% hP.
Where [8] appears, read: 0.5% human plasma, read-out: hGLP1R 0.5% hP.
Where [9] appears, read: 100% human plasma, read-out: hGLP1R 100% hP.

Read-outs that look alike come from different tables or passages of the source. Starred links: 1 amine or outer side, 2 acyl side, 3 side chain; linkers in the order of their positions; H or OH if unused. Positions of bridges follow the written chain, without caps; N, C: chain ends. Non-standard residues stand in square brackets, D forms with d. Groups on a side chain read outwards from the residue. Chains are numbered I, II in the order given. No end group written: not given here. *: point of attachment. C20 diacid = O=C(O)CCCCCCCCCCCCCCCCCCC(=O)*; C18 diacid = O=C(O)CCCCCCCCCCCCCCCCC(=O)*; γGlu = O=C(O)[C@H](CCC(=O)[*:2])N[*:1]; εLys = N[C@@H](CCCCN[*:1])C(=O)[*:2]; AEEA = NCCOCCOCC(=O)O; Aib = CC(C)(N)C(=O)O

T3 sequence (P43220 24-463): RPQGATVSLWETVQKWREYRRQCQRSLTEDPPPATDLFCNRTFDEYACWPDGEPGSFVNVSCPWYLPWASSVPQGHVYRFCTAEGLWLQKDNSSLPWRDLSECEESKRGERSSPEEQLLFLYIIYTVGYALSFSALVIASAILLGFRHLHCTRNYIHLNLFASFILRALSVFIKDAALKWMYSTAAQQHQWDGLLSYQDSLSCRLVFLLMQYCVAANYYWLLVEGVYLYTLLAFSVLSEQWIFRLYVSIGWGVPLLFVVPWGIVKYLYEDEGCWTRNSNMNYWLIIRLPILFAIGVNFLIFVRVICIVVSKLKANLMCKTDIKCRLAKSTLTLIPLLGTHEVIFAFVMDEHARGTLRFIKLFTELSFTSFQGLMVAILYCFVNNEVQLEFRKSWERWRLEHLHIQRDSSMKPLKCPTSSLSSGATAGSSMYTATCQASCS

On to “H-Y[Aib]EGTFTSDYSI[Aib]LEKQAQ[Aib]AFVEWLIK([AEEA-AEEA-γGlu-γGlu-γGlu-γGlu-C20 diacid])GGPSSPASLRHYYNWLTRQRY-NH2 [Compound 175, Y-Aib-E-G-T-F-T-S-D-Y-S-I-Aib-L-E-K-Q-A-Q-Aib-A-F-V-E-W-L-I-K(1,3)-GGPSSPASLRHYYNWLTRQRY-NH2.C20DA-gGlu-gGlu-gGlu-gGlu-OEG-OEG(1,2)]”, for which the EC50 in assay [1] (setting [4]) was determined as 10.5 nM; in assay [1] (setting [5]) it was 48.7 nM; in assay [2] (setting [6]), 0.29 nM; in assay [2] (setting [7]), 1.53 nM; in assay [3] (setting [8]), 0.1 nM.
For “I: H-Y[Aib]EGTFTSDYSI[Aib]LEKQAQ[Aib]AFVQWLIKGGPESGASLRHYYNWLTRQRY-NH2 / II: {C18 diacid}-EEEEE[εLys] (amide I:28-II:C) [Compound 63, Y-Aib-E-G-T-F-T-S-D-Y-S-I-Aib-L-E-K-Q-A-Q-Aib-A-F-V-Q-W-L-I-K(1,3)-GGPESGASLRHYYNWLTRQRY-NH2.C18DA-E-E-E-E-E-eLys(1,2)]”, the EC50 in assay [1] (setting [4]) was determined as 15.2 nM; in assay [2] (setting [6]), 0.13 nM; in assay [2] (setting [7]) it was 0.89 nM; in assay [3] (setting [8]) it was 0.08 nM.
For “H-Y[Aib]EGTFTSDYSI[Aib]LEKQAQ[Aib]AFVEWLIK([εLys-γGlu-γGlu-γGlu-γGlu-γGlu-γGlu-C20 diacid])GGPSSYVSLRHYYNWLTRQRY-NH2 [Compound 40, Y-Aib-E-G-T-F-T-S-D-Y-S-I-Aib-L-E-K-Q-A-Q-Aib-A-F-V-E-W-L-I-K(1,3)-GGPSSYVSLRHYYNWLTRQRY-NH2.C20DA-gGlu-gGlu-gGlu-gGlu-gGlu-gGlu-eLys(1,2)]”, the EC50 in assay [1] (setting [4]) came to 11.9 nM; in assay [1] (setting [5]), 26.4 nM; in assay [2] (setting [6]), 0.48 nM; in assay [2] (setting [7]), 4.36 nM; in assay [3] (setting [8]), 0.46 nM.
“H-Y[Aib]EGTFTSDYSI[Aib]LEKQAQ[Aib]AFVEWLIK([εLys-γGlu-γGlu-γGlu-γGlu-γGlu-γGlu-C20 diacid])GGPSSGVSLRHYYNWLTRQRY-NH2 [Compound 96, Y-Aib-E-G-T-F-T-S-D-Y-S-I-Aib-L-E-K-Q-A-Q-Aib-A-F-V-E-W-L-I-K(1,3)-GGPSSGVSLRHYYNWLTRQRY-NH2.C20DA-gGlu-gGlu-gGlu-gGlu-gGlu-gGlu-eLys(1,2)]”: the EC50 in assay [1] (setting [5]) amounted to 44.8 nM; in assay [2] (setting [6]), 0.19 nM; in assay [2] (setting [7]) it was 1.07 nM; in assay [3] (setting [8]) it was 0.14 nM; in assay [3] (setting [9]), 2.12 nM.
In the case of “H-Y[Aib]EGTFTSDYSI[Aib]LEKQAQ[Aib]AFVQWLIK([εLys-γGlu-γGlu-γGlu-γGlu-γGlu-γGlu-C20 diacid])GGPSSYVSLRHYYNWLTRQRY-NH2 [Compound 15, Y-Aib-E-G-T-F-T-S-D-Y-S-I-Aib-L-E-K-Q-A-Q-Aib-A-F-V-Q-W-L-I-K(1,3)-GGPSSYVSLRHYYNWLTRQRY-NH2.C20DA-gGlu-gGlu-gGlu-gGlu-gGlu-gGlu-eLys(1,2)]”, the EC50 in assay [1] (setting [5]) came to 15.4 nM; in assay [2] (setting [6]), 0.32 nM; in assay [2] (setting [7]), 2.43 nM; in assay [3] (setting [8]), 0.16 nM.
Consider “H-Y[Aib]EGTFTSDYSI[Aib]LEKQAQ[Aib]AFVEWLIK([εLys-γGlu-γGlu-γGlu-γGlu-γGlu-γGlu-C20 diacid])GGPSSAASLRHYYNWLTRQRY-NH2 [Compound 98, Y-Aib-E-G-T-F-T-S-D-Y-S-I-Aib-L-E-K-Q-A-Q-Aib-A-F-V-E-W-L-I-K(1,3)-GGPSSAASLRHYYNWLTRQRY-NH2.C20DA-gGlu-gGlu-gGlu-gGlu-gGlu-gGlu-eLys(1,2)]”, for which the EC50 was found to be 15.1 nM in assay [1] (setting [4]) and 0.31 nM in assay [3] (setting [8]).
Consider “H-Y[Aib]EGTFTSDYSI[Aib]LEKQAQ[dD]AFVEWLIK([εLys-γGlu-γGlu-γGlu-γGlu-γGlu-γGlu-C20 diacid])GGPSSGASLRHYYNWLTRQRY-NH2 [Compound 211, Y-Aib-E-G-T-F-T-S-D-Y-S-I-Aib-L-E-K-Q-A-Q-DAsp-A-F-V-E-W-L-I-K(1,3)-GGPSSGASLRHYYNWLTRQRY-NH2.C20DA-gGlu-gGlu-gGlu-gGlu-gGlu-gGlu-eLys(1,2)]”, for which the EC50 came out at 11.2 nM in assay [1] (setting [4]), 56.3 nM in assay [1] (setting [5]) and 0.74 nM in assay [3] (setting [8]).
Taken in the same sequence, the figures for “H-Y[Aib]EGTFTSDYSI[Aib]LE[Aib]EAQ[Aib]KFVEWLIK([εLys-γGlu-γGlu-γGlu-γGlu-γGlu-γGlu-C20 diacid])GGPSSGASLRHYYNWLTRQRY-NH2 [Compound 16, Y-Aib-E-G-T-F-T-S-D-Y-S-I-Aib-L-E-Aib-E-A-Q-Aib-K-F-V-E-W-L-I-K(1,3)-GGPSSGASLRHYYNWLTRQRY-NH2.C20DA-gGlu-gGlu-gGlu-gGlu-gGlu-gGlu-eLys(1,2)]” were 28.8 nM, 197 nM and 1.48 nM.
Take “H-Y[Aib]EGTFTSDYSI[Aib]LEKQAQ[dR]AFVEWLIK([εLys-γGlu-γGlu-γGlu-γGlu-γGlu-γGlu-C20 diacid])GGPSSGASLRHYYNWLTRQRY-NH2 [Compound 216, Y-Aib-E-G-T-F-T-S-D-Y-S-I-Aib-L-E-K-Q-A-Q-DArg-A-F-V-E-W-L-I-K(1,3)-GGPSSGASLRHYYNWLTRQRY-NH2.C20DA-gGlu-gGlu-gGlu-gGlu-gGlu-gGlu-eLys(1,2)]”: the EC50 in assay [1] (setting [5]) was determined as 16.8 nM; in assay [3] (setting [8]), 0.31 nM.
“H-Y[Aib]EGTFTSDYSI[Aib]LEKQAQ[Aib]AFVQWLIK([εLys-γGlu-γGlu-γGlu-γGlu-γGlu-γGlu-C20 diacid])GGPSYYVSLRHYYNWLTRQRY-NH2 [Compound 19, Y-Aib-E-G-T-F-T-S-D-Y-S-I-Aib-L-E-K-Q-A-Q-Aib-A-F-V-Q-W-L-I-K(1,3)-GGPSYYVSLRHYYNWLTRQRY-NH2.C20DA-gGlu-gGlu-gGlu-gGlu-gGlu-gGlu-eLys(1,2)]”: the EC50 in assay [1] (setting [5]) was 19.3 nM; in assay [3] (setting [8]) it was 0.5 nM; in assay [3] (setting [9]) it was 10.2 nM.
Take “Y[Aib]EGTFTSDYSI[Aib]LEKQAQ[Aib]AFVEWLIK([γGlu-γGlu-γGlu-γGlu-γGlu-C20 diacid])GGPSSGASLRHYYNWLTRQRY-NH2 [Compound 238, Y-Aib-E-G-T-F-T-S-D-Y-S-I-Aib-L-E-K-Q-A-Q-Aib-A-F-V-E-W-L-I-K(1,3)-GGPSSGASLRHYYNWLTRQRY-NH2.C20DA-gGlu-gGlu-gGlu-gGlu-gGlu(1,2)]”: the values for the EC50 in assay [1] (setting [4]), in assay [3] (setting [8]) and in assay [3] (setting [9]) were 11.6 nM, 0.1 nM and 2.55 nM, respectively.
“H-Y[Aib]EGTFTSDYSI[Aib]LAAAAQ[Aib]AFVEWLIK([εLys-γGlu-γGlu-γGlu-γGlu-γGlu-γGlu-C20 diacid])GGPSSGASLRHYYNWLTRQRY-NH2 [Compound 20, Y-Aib-E-G-T-F-T-S-D-Y-S-I-Aib-L-A-A-A-A-Q-Aib-A-F-V-E-W-L-I-K(1,3)-GGPSSGASLRHYYNWLTRQRY-NH2.C20DA-gGlu-gGlu-gGlu-gGlu-gGlu-gGlu-eLys(1,2)]”: the values for the EC50 in assay [1] (setting [4]) and in assay [2] (setting [6]) were 19.1 nM and 0.93 nM, respectively.

The values above are taken from patent publication US20240247080A1, “GLP1/GIP/NPY2 RECEPTOR TRIPLE AGONISTS” (Boehringer Ingelheim International GmbH, priority 2022, published 2024).
